Assay results reported in patent US20130072533A1, “COMPOUNDS WITH BOTH ANALGESIC AND ANTI-HYPERALGESIC EFFICACY” (priority 2010, published 2013).
Where a name gives a salt, the structure may show the parent alone.

Columns and labels:
[1] = tested on: hyperalgesia induced in the rat by loose ligation of the sciatic nerve; assay: Paw pressure test, rat mononeuropathy (loose ligation of the sciatic nerve); assay type: in vivo
Protocol: In particular, a racemic mixture of the compounds of formula (I) in the form of sodium salt, in which the stereogenic centre deriving from camosine is in the L configuration, was subjected to in vivo pharmacological tests which have enabled their surprising analgesic effects to be discovered.
The observed effect is greater, albeit slightly, than that obtained by tramadol 100 mg kg^−1 per os and pregabalin 200 mg kg^−1 per os, in the same experimental model.

[2] = tested on: acetic acid induced writhes in mice; assay: Abdominal writhing test (acetic acid 0.6%); assay type: in vivo, mouse
Protocol: The 10 mg kg^−1 per os dose was also found to be effective.

[3] = tested on: oxaliplatin induced hyperalgesia in the rat; assay: Paw pressure test, oxaliplatin-induced hyperalgesia; assay type: in vivo; settings: oxaliplatin rats
[4] = tested on: spontaneous motility and exploratory activity of the mouse; assay: Hole-board test; assay type: in vivo
Description: (§1) In particular, in the case of the rotarod, the number of falls from the rotating rod progressively decreases with repeated falls. This confirms that the observed anti-hyperalgesic effects are not due to a change in the animal's behaviour.

[5] = tested on: motor coordination of the mouse; assay: Rotarod test; assay type: in vivo
Description: as §1

[6] = tested on: osteoarthritis induced pain (MIA) in the rat; assay: Paw pressure test, osteoarthritis induced pain (intra-articular monosodium iodoacetate); assay type: in vivo; settings: for PAW PRESSURE, AFTER TREATMENT (15 min) / PAW PRESSURE, AFTER TREATMENT 30 min / PAW PRESSURE, Pre-test: MIA rats
Protocol: At the same doses of 10 and 30 mg kg^−1 per os, the racemic mixture under study was also found to be effective in reversing the pain threshold reduction induced by the intra-articular Injection of monoiodide acetate at a dose of 2 mg in a 25 μl volume (osteoarthritis model). In this case the effect is statistically significant up to 45 minutes after administration at the lower dose and up to 60 minutes at the three-fold dose.

[7] = tested on: pain threshold of the mouse; assay: Hot plate test (acute thermal stimulus); assay type: in vivo; settings: for HOT PLATE TEST, 15 min / HOT PLATE TEST, 30 min / HOT PLATE TEST, 45 min / HOT PLATE TEST, 60 min / HOT PLATE TEST, Pre-test: mice
[8] = 30 mg kg^−1 per os, 30 min before the test

O=C(CCCCC1CCSS1)NCCC(=O)NC(Cc1cnc[nH]1)C(=O)O (racemic) (as salt: sodium) [Compound 2]
melting point: > 213 °C (dec.)

COc1cccc(C2(O)CCCCC2CN(C)C)c1 (stereo not drawn) [TRAMADOL, tramadol, reference compound]
PAW PRESSURE, AFTER TREATMENT (15 min) ([1]; 100 mg/kg per os, left paw): 72.3 ± 3.0^ g | PAW PRESSURE, BEFORE TREATMENT ([1]; 100 mg/kg per os, left paw): 58.3 ± 3.1 g | PAW PRESSURE, AFTER TREATMENT (15 min) ([1]; 100 mg/kg per os, right paw): 55.8 ± 2.5 g | PAW PRESSURE, BEFORE TREATMENT ([1]; 100 mg/kg per os, right paw): 25.7 ± 2.2 g

CC(C)Cc1ccc(C(C)C(=O)O)cc1 (stereo not drawn) [IBUPROFEN, ibuprofen, reference compound]
no. of writhes [2, 8]: 20.3 ± 2.2 | no. of writhes ([2]; 100 mg kg^−1 per os, 30 min before the test): 13.5 ± 2.0

O=C(CCCCC1CCSS1)NCCC(=O)NC(Cc1cnc[nH]1)C(=O)O (racemic) [Compound 2]
PAW PRESSURE TEST, AFTER TREATMENT 15 min ([3]; 10 mg/kg per os): 34.6 ± 3.1^ g | PAW PRESSURE TEST, AFTER TREATMENT 30 min ([3]; 10 mg/kg per os): 36.7 ± 3.5^ g | PAW PRESSURE TEST, AFTER TREATMENT 45 min ([3]; 10 mg/kg per os): 31.9 ± 3.5 g | PAW PRESSURE TEST, AFTER TREATMENT 60 min ([3]; 10 mg/kg per os): 26.9 ± 2.8 g | PAW PRESSURE TEST, Pre-test ([3]; 10 mg/kg per os): 23.8 ± 3.6 g | PAW PRESSURE TEST, AFTER TREATMENT 15 min ([3]; 30 mg/kg per os): 43.6 ± 3.9 g | PAW PRESSURE TEST, AFTER TREATMENT 30 min ([3]; 30 mg/kg per os): 48.9 ± 3.6 g | PAW PRESSURE TEST, AFTER TREATMENT 45 min ([3]; 30 mg/kg per os): 41.6 ± 3.6 g | PAW PRESSURE TEST, AFTER TREATMENT 60 min ([3]; 30 mg/kg per os): 31.7 ± 3.3 g | PAW PRESSURE TEST, Pre-test ([3]; 30 mg/kg per os): 22.9 ± 3.5 g | change of behavioural parameters: spontaneous motility and exploratory activity (hole-board) ([4]; 30 mg kg^−1 per os): does not alter the behavioural parameters | No. of inspections ([4]; 30 mg/kg per os, mice): 37.8 ± 7.5 | No. of movements ([4]; 30 mg/kg per os, mice): 30.3 ± 7.7 | change of behavioural parameters: motor coordination (rotarod) ([5]; 30 mg kg^−1 per os): does not alter the behavioural parameters | FALLS IN 30 SEC, 15 min ([5]; 30 mg/kg per os, mice, 15 min): 3.9 ± 0.3 | FALLS IN 30 SEC, 30 min ([5]; 30 mg/kg per os, mice, 30 min): 1.3 ± 0.3 | FALLS IN 30 SEC, 45 min ([5]; 30 mg/kg per os, mice, 45 min): 0.8 ± 0.2 | FALLS IN 30 SEC, Pre-test ([5]; 30 mg/kg per os, mice, pre-test): 5.2 ± 0.3 | onset of the effect after administration ([1]; 10 mg/kg per os): 15 min | time up to which the effect remained unchanged ([1]; 10 mg/kg per os): up to 45 minutes | PAW PRESSURE, AFTER TREATMENT (15 min) ([1]; 10 mg/kg per os, left paw): 69.5 ± 4.4 g | PAW PRESSURE, BEFORE TREATMENT ([1]; 10 mg/kg per os, left paw): 61.9 ± 3.4 g | reversal of hyperalgesia ([1]; 10 mg/kg per os, ligation 14 days earlier): able to reverse, in a statistically significant manner | PAW PRESSURE, AFTER TREATMENT (15 min) ([1]; 10 mg/kg per os, right paw): 48.3 ± 3.5 g | PAW PRESSURE, BEFORE TREATMENT ([1]; 10 mg/kg per os, right paw): 25.2 ± 3.3 g | PAW PRESSURE, AFTER TREATMENT (15 min) ([1]; 30 mg/kg per os, left paw): 81.6 ± 3.1 g | PAW PRESSURE, BEFORE TREATMENT ([1]; 30 mg/kg per os, left paw): 59.2 ± 3.8 g | PAW PRESSURE, AFTER TREATMENT (15 min) ([1]; 30 mg/kg per os, right paw): 66.3 ± 3.3 g | PAW PRESSURE, BEFORE TREATMENT ([1]; 30 mg/kg per os, right paw): 24.8 ± 3.2 g | no. of writhes ([2]; 1 mg kg^−1 per os, 30 min before the test): 28.5 ± 2.8 | no. of writhes ([2]; 10 mg kg^−1 per os, 30 min before the test): 21.8 ± 3.1 | no. of writhes ([2]; 30 mg kg^−1 per os with naloxone 1 mg kg^−1 i.p. 15 min before): 13.6 ± 3.0 | no. of writhes [2, 8]: 12.7 ± 2.6 | antagonism of the analgesia by naloxone ([2]; 30 mg kg^−1 per os, naloxone 1 mg kg^−1 i.p.): not antagonized by the opioid antagonist naloxone | PAW PRESSURE, AFTER TREATMENT (15 min) ([6]; 10 mg/kg p.o.): 49.3 ± 2.5 g | PAW PRESSURE, AFTER TREATMENT 30 min ([6]; 10 mg/kg p.o.): 45.3 ± 3.9 g | PAW PRESSURE, Pre-test ([6]; 10 mg/kg p.o.): 24.5 ± 2.1 g | PAW PRESSURE, AFTER TREATMENT (15 min) ([6]; 30 mg/kg p.o.): 59.1 ± 3.3 g | PAW PRESSURE, AFTER TREATMENT 30 min ([6]; 30 mg/kg p.o.): 54.7 ± 3.6 g | PAW PRESSURE, Pre-test ([6]; 30 mg/kg p.o.): 24.4 ± 2.5 g | time after administration up to which the effect is statistically significant ([6]; lower dose (10 mg kg^−1 per os)): up to 45 minutes | time after administration up to which the effect is statistically significant ([6]; three-fold dose (30 mg kg^−1 per os)): up to 60 minutes | HOT PLATE TEST, 15 min ([7]; 1 mg/kg per os): 18.7 ± 2.7 | HOT PLATE TEST, 30 min ([7]; 1 mg/kg per os): 25.1 ± 2.7 | HOT PLATE TEST, 45 min ([7]; 1 mg/kg per os): 14.0 ± 2.0 | HOT PLATE TEST, 60 min ([7]; 1 mg/kg per os): 15.7 ± 2.6 | HOT PLATE TEST, Pre-test ([7]; 1 mg/kg per os): 15.7 ± 0.8 | HOT PLATE TEST, 15 min ([7]; 10 mg/kg per os): 25.9 ± 2.8 | HOT PLATE TEST, 30 min ([7]; 10 mg/kg per os): 22.3 ± 2.6 | HOT PLATE TEST, 45 min ([7]; 10 mg/kg per os): 19.3 ± 1.9 | HOT PLATE TEST, 60 min ([7]; 10 mg/kg per os): 17.4 ± 0.8 | HOT PLATE TEST, Pre-test ([7]; 10 mg/kg per os): 15.3 ± 0.9 | HOT PLATE TEST, 15 min ([7]; 30 mg/kg per os): 29.7 ± 2.8 | HOT PLATE TEST, 30 min ([7]; 30 mg/kg per os): 26.0 ± 2.7 | HOT PLATE TEST, 45 min ([7]; 30 mg/kg per os): 20.3 ± 2.9 | HOT PLATE TEST, 60 min ([7]; 30 mg/kg per os): 18.7 ± 2.1 | HOT PLATE TEST, Pre-test ([7]; 30 mg/kg per os): 15.7 ± 1.3 | rise of the pain threshold ([7]; dose range between 1 and 30 mg kg^−1 per os): able to raise the pain threshold in a dose-dependent manner

CC(C)C[C@H](CN)CC(=O)O [PREGABALIN, pregabalin, reference compound]
PAW PRESSURE, AFTER TREATMENT (15 min) ([1]; 200 mg/kg per os, left paw): 70.4 ± 3.5 g | PAW PRESSURE, BEFORE TREATMENT ([1]; 200 mg/kg per os, left paw): 57.3 ± 3.5 g | PAW PRESSURE, AFTER TREATMENT (15 min) ([1]; 200 mg/kg per os, right paw): 58.2 ± 3.1 g | PAW PRESSURE, BEFORE TREATMENT ([1]; 200 mg/kg per os, right paw): 26.3 ± 3.0 g
